Legend:
OTR = biological target: T1, OTR (Homo sapiens, UniProt P30559); test: Ca2+ mobilization in cells stably expressing OTR (FLIPR, antagonist mode); format: cell-based; conditions: OTR/HEK293 stably transfected cell line
T1 construct: expressed in transfected cells; host or cells: OTR/HEK293 stably transfected cell line
T1 sequence (P30559 1-389): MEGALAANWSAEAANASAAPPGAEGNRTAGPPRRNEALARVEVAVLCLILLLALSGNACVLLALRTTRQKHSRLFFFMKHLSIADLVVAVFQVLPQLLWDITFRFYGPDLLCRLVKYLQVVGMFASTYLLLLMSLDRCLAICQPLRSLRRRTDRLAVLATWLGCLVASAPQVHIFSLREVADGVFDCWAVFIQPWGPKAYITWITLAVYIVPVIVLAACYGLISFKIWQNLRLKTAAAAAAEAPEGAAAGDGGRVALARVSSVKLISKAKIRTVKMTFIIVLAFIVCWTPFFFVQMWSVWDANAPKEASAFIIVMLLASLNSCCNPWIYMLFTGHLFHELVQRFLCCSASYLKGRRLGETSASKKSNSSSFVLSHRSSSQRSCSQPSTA
Outline: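 Antagonist mode: test compounds in 10-point 3-fold series were added on FLIPR to Fluo-4-loaded HEK293 cells stably expressing OTR, followed by reference agonist at its EC80, determined beforehand. The Max-Min calcium fluorescence response was fitted in Prism.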

V1aR = biological target: T2, V1aR (Homo sapiens, UniProt P37288); test: Ca2+ mobilization in cells stably expressing V1aR (FLIPR, antagonist mode); format: cell-based; conditions: V1a-CHO stably transfected cell line
T2 construct: expressed in transfected cells; host or cells: V1a-CHO stably transfected cell line
From the text: Test Example 2. Determination of the Effect of the Compound of the Present Disclosure on Ca^2+ Mobilization in Cells Stably Expressing V1aR
To measure the antagonistic effect of the compound of the present disclosure on V1aR activity expressed in the V1a-CHO stably transfected cell line.
• F-12 (Hyclone, SH30026.01) • FLIPR CALCIUM 6 ASSAY KIT (Molecul Device, R8191) • Fetal Bovine Serum (FBS) (AusGeneX, FBS500-S) • Hygromycin B (Solarbio, H8080-1g) • DMSO (Sigma, D4540) • HBSS (Gibco 14025-092) • Probenecid (MCE, HY—B0545) • 0.36 mL 96 Round V-bottom Deep Well Plates for Laboratory (Biaosen P-0.36-BSA-96) • 384-well conical bottom polypropylene plate (Nunc, 264573) • Corning® 384-well Flat Clear Bottom Black Polystyrene TC-treated Microplates (Corning 3764)
• Biological safety cabinet (ECSO, AC2-6S1-TC) • Carbon dioxide cell incubator (ECSO, CCI-170B-8) • Inverted microscope (Olympus, CKX53) • Microplate low-speed centrifuge (Xiangzhi, TD5B) • FLIPR® Penta (Molecul Device, 5.0)
• 1. Cell plating: V1a-CHO cells were digested and harvested, resuspended and counted, and then inoculated into a 384-well cell plate at a density of: 1.2×10^4 cells/25 μL/well. The cell plate was then incubated in an incubator at 37° C. with 5% CO2 for about 16-20 h. • 2. The next day: after preparing Assay Buffer, 20× Component A was thawed to room temperature, diluted with Assay buffer to 1× loading buffer, and placed at room temperature for later use. • 3. The medium was removed from the cell plate, and 40 μL of 1× loading buffer was quickly added to each well. After centrifugation, the cell plate was incubated at 37° C. in the dark for 120 minutes. • 4. The serially diluted positive compound, serially diluted test compound, and agonist working solution were formulated. After mixing the serially diluted positive compound/serially diluted test compound with the agonist at a 1:1 ratio, 20 μL per well was transferred to a 384-well compound source plate. • 5. The cell plate, agonist source plate, and pipette tips were placed into their respective positions in the FLIPR instrument. Using FLIPR Tetra, 10 μL of the diluted agonist from Step 4 was added to each test well, and the data were collected at a wavelength of 515 nm-575 nm. • 6. The signal values were plotted against the compound concentrations, and the curve fitting and IC50 calculation were performed using the nonlinear regression method of GraphPad Prism software.

T2 sequence (P37288 whole entry, species assumed): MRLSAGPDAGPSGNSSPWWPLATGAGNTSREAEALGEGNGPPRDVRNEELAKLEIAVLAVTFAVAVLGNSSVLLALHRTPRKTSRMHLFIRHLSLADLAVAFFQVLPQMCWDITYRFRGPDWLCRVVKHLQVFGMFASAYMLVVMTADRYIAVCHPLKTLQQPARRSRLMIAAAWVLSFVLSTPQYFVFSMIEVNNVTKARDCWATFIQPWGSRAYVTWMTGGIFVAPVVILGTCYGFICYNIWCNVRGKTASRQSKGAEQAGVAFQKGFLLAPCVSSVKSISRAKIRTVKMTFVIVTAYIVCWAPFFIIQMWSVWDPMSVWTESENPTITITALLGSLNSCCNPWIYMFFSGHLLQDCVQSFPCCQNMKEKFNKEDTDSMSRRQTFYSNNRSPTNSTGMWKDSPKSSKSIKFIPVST

| Structure (SMILES) | IC50 (OTR) | IC50 (V1aR) |
| --- | --- | --- |
| CO/N=C1/C[C@@H](CO)N(C(=O)c2ccc(-c3cccc(C#N)c3C)cc2OC)C1 [Example A0243] | 34.1 nM | 7360 nM |
| CO/N=C1/C[C@@H](CO)N(C(=O)c2ccc(-c3cccc(C#N)c3C)c(C#N)c2)C1 [Example A0173, 2-(3-Cyano-2-methylphenyl)-5-[(2S, 4Z)-2-(hydroxymethyl)-4-(methoxyimino)pyrrolidine-1-carbonyl]benzonitrile] | 36.1 nM | 8770 nM |
| CO/N=C1/C[C@@H](CO)N(C(=O)c2ccc(-c3cccc(C(F)(F)F)c3C)cc2)C1 [Example C0060, (S,Z)-(2-(Hydroxymethyl)-4-(methoxyimino)pyrrolidin-1-yl)(2′-methyl-3′-(trifluoromethyl)-[1,1′-biphenyl]-4-yl)methanone] | 17.9 nM | 3210 nM |
| CO/N=C1\CN(C(=O)c2ccc(-c3ccccc3C)cc2)[C@](C)(CO)C1 [Example C0021, (S, Z)-(2-(Hydroxymethyl)-4-(methoxyimino)-2-methylpyrrolidin-1-yl)(2′-methyl-[1,1′-biphenyl]-4-yl)methanone] | 74 nM | 862 nM |
| CO/N=C1/C[C@@H](CO)N(C(=O)c2ccc(-c3ccccc3C)c(C)c2)C1 [Example C0046, (S, Z)-(2′,2-Dimethyl-[1,1′-biphenyl]-4-yl)(2-(hydroxymethyl)-4-(methoxyimino)pyrrolidin-1-yl)methanone] | 22.1 nM | 1850 nM |
| CO/N=C1/C[C@@H](CO)N(C(=O)c2cnc(-c3cccc(Cl)c3C)cn2)C1 [Example C0041, (S, Z)-(5-(3-Chloro-2-methylphenyl)pyrazin-2-yl)(2-(hydroxymethyl)-4-(methoxyimino)pyrrolidin-1-yl)methanone] | 49.3 nM | 1750 nM |
| CO/N=C1/C[C@@H](CO)N(C(=O)c2ccc(-c3cccc(C(F)F)c3C)c3c2OCO3)C1 [Example C0118, (S, Z)-(7-(3-(Difluoromethyl)-2-methylphenyl)benzo[d][1,3]dioxolan-4-yl)(2-(hydroxymethyl)-4-(methoxyimino)pyrrolidin-1-yl)methanone] | 32.9 nM | 1140 nM |
| CO/N=C1/C[C@@H](CO)N(C(=O)c2ccc(-c3cccc(C)c3C)c(OC)n2)C1 [Example C0073, (S, Z)-(5-(2,3-Dimethylphenyl)-6-methoxypyridin-2-yl)(2-(hydroxymethyl)-4-(methoxyimino)pyrrolidin-1-yl)methanone] | 42.2 nM | 5030 nM |
| CO/N=C1\C[C@@H](CO)N(C(=O)c2ccc(-c3cccc(C#N)c3C)c3c2OCCO3)C1 [Example C0132, (S,E)-3-(8-(2-(Hydroxymethyl)-4-(methoxyimino)pyrrolidine-1-carbonyl)-2,3-dihydrobenzo[b][1,4]dioxin-5-yl)-2-methylbenzonitrile] | 11.4 nM | 8370 nM |
| CO/N=C1/C[C@@H](CO)N(C(=O)c2ccc(-c3ccccc3C)cc2C)C1 [Example C0044, (S, Z)-(2′,3-Dimethyl-[1,1′-biphenyl]-4-yl)(2-(hydroxymethyl)-4-(methoxyimino)pyrrolidin-1-yl)methanone] | 78.5 nM | 5510 nM |
| CON=C1CC(CO)N(C(=O)c2ccc(-c3cccc(C#N)c3C)c3c2OCO3)C1 (single isomer, unassigned) [Example C0098] | 55.9 nM | 13200 nM |
| CO/N=C1/C[C@@H](CO)N(C(=O)c2ccc(-c3cccc(C#N)c3C)c3c2OCCCO3)C1 [Example A0235, (S,Z)-3-(9-(2-(Hydroxymethyl)-4-(methoxyimino)pyrrolidine-1-carbonyl)-3,4-dihydro-2H-benzo[b][1,4]dioxepin-6-yl)-2-methylbenzonitrile] | 23.2 nM | 1360 nM |
| CO/N=C1/C[C@@H](CO)N(C(=O)c2ccc(-c3cccc(C#N)c3C)c(OC)n2)C1 [Example A0215, 3-(6-[(2S, 4Z)-2-(Hydroxymethyl)-4-(methoxyimino)pyrrolidine-1-carbonyl]-2-methoxypyridin-3-yl)-2-methylbenzonitrile] | 58.7 nM | 11200 nM |
| CO/N=C1/C[C@@H](CO)N(C(=O)c2ccc(-c3cccc(C#N)c3C)c3c2OCCN3C)C1 [Example A0162] | 31.5 nM | 587 nM |
| CO/N=C1/C[C@@H](CO)N(C(=O)c2ccc(-c3c(F)ccc(C#N)c3C)c3c2OCCO3)C1 [Example C0150, 4-Fluoro-3-(8-((S,Z)-2-(hydroxymethyl)-4-(methoxyimino)pyrrolidine-1-carbonyl)-2,3-dihydrobenzo[b][1,4]dioxin-5-yl)-2-methylbenzonitrile] | 7.07 nM | 4050 nM |
| CO/N=C1/C[C@@H](CO)N(C(=O)c2ccc(-c3cccc(Cl)c3C)cc2)C1 [Example C0056, (S, Z)-(3′-Chloro-2′-methyl-[1,1′-biphenyl]-4-yl)(2-(hydroxymethyl)-4-(methoxyimino)pyrrolidin-1-yl)methanone] | 10.2 nM | 2760 nM |
| CO/N=C1/C[C@@H](CO)N(C(=O)c2ccc(-c3cccc(C)c3C)c3c2OCO3)C1 [Example C0062, (S, Z)-(7-(2,3-Dimethylphenyl)benzo[d][1,3]dioxol-4-yl)(2-(hydroxymethyl)-4-(methoxyimino)pyrrolidin-1-yl)methanone] | 10.6 nM | 2740 nM |
| CO/N=C1/C[C@@H](CO)N(C(=O)c2ccc(-c3ccc(C#N)c(C)c3C)cc2)C1 [Example C0075, (S, Z)-4′-(2-(Hydroxymethyl)-4-(methoxyimino)pyrrolidine-1-carbonyl)-2,3-dimethyl-[1,1′-biphenyl]-4-carbonitrile] | 46.8 nM | 20000 nM |
| CO/N=C1/C[C@@H](CO)N(C(=O)c2ccc(-c3cccc(C#N)c3Cl)c3c2OCCO3)C1 [Example C0154, (S,Z)-2-Chloro-3-(8-(2-(hydroxymethyl)-4-(methoxyimino)pyrrolidine-1-carbonyl)-2,3-dihydrobenzo[b][1,4]dioxin-5-yl)benzonitrile] | 5.32 nM | 1610 nM |
| CO/N=C1/C[C@@H](C(C)(C)O)N(C(=O)c2ccc(-c3cccc(C#N)c3C)cc2)C1 [Example C0164, (S,Z)-4′-(2-(2-Hydroxypropan-2-yl)-4-(methoxyimino)pyrrolidine-1-carbonyl)-2-methyl-[1,1′-biphenyl]-3-carbonitrile] | 20.6 nM | 1870 nM |
| CO/N=C1/C[C@@H](CO)N(C(=O)c2ccc(-c3cccc(C)c3C)c3c2CCC3)C1 [Example C0083, (S,Z)-(7-(2,3-Dimethylphenyl)-2,3-dihydro-1H-inden-4-yl)(2-(hydroxymethyl)-4-(methoxyimino)pyrrolidin-1-yl)methanone] | 11.1 nM | 2920 nM |
| CO/N=C1/C[C@@H](CO)N(C(=O)c2ccc(-c3cccc(C)c3C)c(C)c2)C1 [Example C0047, (S, Z)-(2,2′,3′-Trimethyl-[1,1′-biphenyl]-4-yl)(2-(hydroxymethyl)-4-(methoxyimino)pyrrolidin-1-yl)methanone] | 11.2 nM | 2400 nM |
| CO/N=C1/C[C@@H]([C@H](C)O)N(C(=O)c2ccc(-c3cccc(C#N)c3C)cc2)C1 (single isomer, unassigned) [Example C0111] | 12.6 nM | 2350 nM |

— US20260248763A1 (BIO GENUINE (SHANGHAI) BIOTECH CO., LTD, priority 2023, published 2026)
